Test [1] has as its system mouse intralobular bronchi. Briefly: Wire myography: effect of calcilytic on ACh-precontracted mouse intralobular bronchi. The conditions noted are these: 300 nM or 3 micromolar; ACh 1 micromolar precontraction; WT mice.
Description: Second/third order intralobular bronchi were dissected from the lung left lobe of WT or CaSR KO mice, mounted in small vessel myograph. Bronchi were gradually stretched to reach 2 mN of passive tension. After 30 min of equilibration time, the reactivity of the bronchi was tested by addition of 40 mM KCl to the bath. […] Data are shown as mean±SEM percentage change from baseline. […] Bronchi were left to settle at 37° C. for 30 min, then gradually stretched to reach 2 mN of passive tension. After 30 min of equilibration time, the reactivity of the bronchi was tested by addition of 40 mM KCl to the bath.
Test [2] concerns BalbC mice. Briefly: Polycation-induced bronchial hyper-reactivity (Penh, plethysmography) in methacholine-challenged conscious mice. The test is classed as in vivo, mouse. The conditions noted are these: nebulised 3 μM; poly-L-arginine 3 μM; methacholine challenge. The procedure:
FIG. 5. […] prevent polycation-evoked BHR in methacholine-challenged mice. […] After the treatment, animals were placed in plethysmography chambers (Buxco, USA), allowed to settle for 10 minutes, and then they were challenged with methacholine (MCh, 0.1-10 mg/ml). Responses to methacholine obtained from the animals that have not received any treatments are shown in black symbols. From our previous estimates, 1-5% of the nebulised drug reaches the lung epithelium. […] FIG. 12. […] Male BalbC mice ( 25 g) were purchased from Harlan 1 week before the experimental protocols were performed. […] On the day of the experiment, the body weight of each mouse was recorded and mice were allowed to acclimatise to the chamber for at least 10 min before recordings were made. Then, respiratory activity was recorded for 5 min, to establish baseline value for Penh. […] Data were recorded for 3 minutes after each aerosol administration. The Penh values at each MCh concentration were averaged and expressed as a proportion of baseline Penh (Penh before treatment). […] The Penh values at each MCh concentration were averaged and expressed as a proportion of that day's baseline Penh (Penh after treatment). […] Effect of Polycations and of the Calcilytic NPS89636 on Bronchial Hyper-Reactivity in Unrestrained, Conscious Mice In Vivo Baseline airway hyper-responsiveness was measured by plethysmography. […]

Test [3] has as its system BalbC mice. Briefly: Inflammatory cell infiltration in BALF of OVA-sensitised mice. As to conditions: nebulised 3 micromolar. The test is classed as in vivo, mouse. On the procedure:
FIG. 14. The calcilytic NPS89636 reduces inflammatory cell infiltration detected in the bronchioalveolar lavage fluid (BALF) from mice sensitized with OVA. 24 hours following the OVA sensitisation and nebulisation protocol described in detail in FIG. 13 in the presence of NS89636 (3 micromolar) or vehicle (0.3% DMSO), mice were killed and the BALF was collected by lavage. Cells from BALF were counted the same day using a haematocytometer. For differential cell count, BALF was concentrated by centrifugation 10 times, 100 microliters of the final solution was applied to a Cytospin 3 Shandon cell smearing system. The slides then were submerged into 1.5% Leisman stain in methanol for 6 min, then briefly washed in water twice, allowed to dry overnight, and the cells counted using 100× oil immersion objective. Data are presented as mean±S.E.M. Significant differences between vehicle and calcilytic are indicated, p<0.05, n=11.
Effect of the Calcilytic NPS 89636 on Inflammatory Cell Infiltration in the BALF of OVA-Sensitised Mice and LPS-Treated Guinea Pigs.
For the asthma model, OVA-sensitized mice were killed by a lethal overdose of sodium pentobarbitone (Euthatal), then using a cannula 1 ml of PBS was instilled into the lungs via an incision in the trachea. […]

Structures are written as SMILES.

The results in this text go back to patent US9861606B2, “Therapeutic for treating inflammatory lung disorders” (University College Cardiff Consultants Limited, priority 2012, dated 2018).

As for `CCc1ccc(CC(C)(C)NCC(O)COc2cc(-c3ccc(C(=O)O)cc3)ccc2C#N)c(F)c1.Cl` (stereo in doubt) [NPS89636, (S)-4′-cyano-3′-[3-[2-(4-ethyl-2-fluorophenyl)-1,1-dimethylethylamino]-2-hydroxy-propoxy]-biphenyl-4-carboxylic acid hydrochloride], the “Relaxation of acetylcholine-preconstricted intralobular bronchi” value in test [1] was “mild relaxation”. Besides, the “Effect on poly-L-arginine-induced increase in airway reactivity (Penh)” value with BalbC mice [2] is “completely prevented”. In addition, the “Effect on OVA-evoked inflammatory cell infiltration into the lung (BALF)” value in the test with BalbC mice [3] is given as “reduced”.
